Twelve compounds from patent US20260317296A1, “HETEROCYCLIC COMPOUNDS FOR IMAGING AGGREGATED TAU IN TAUOPATHIES” (University of Pittsburgh - Of the Commonwealth System of …, priority 2023, published 2026) can be followed below.

One may read the Kd as a measure of binding affinity in units of concentration. A high value points to a looser complex. What is called Ki is the dissociation constant of the complex between target and ligand, obtained from inhibition or displacement. As a reminder, the logD is lipophilicity at a set pH, counting ionised and neutral species. The low end stands for lower lipophilicity, the high end for higher lipophilicity.

The target of data set [1] is T1, aggregated 4R-tau in PSP brain (Homo sapiens, UniProt P10636).
T1 construct: aggregated 4R-tau in human brain tissue samples from AD, PSP, and CBD patients; from tissue; host or cells: homogenized cortex of human PSP brain
Briefly: Binding affinity (Kd) assay, PSP brain homogenate. The note with it: for Kd: PSP brain, Table 1.

The target in data set [2] is T2, aggregated 4R-tau in AD brain (Homo sapiens, UniProt P10636).
T2 construct: aggregated 4R-tau in human brain tissue samples from AD, PSP, and CBD patients; from tissue; host or cells: homogenized cortex of human AD brain
Kind of data set: Binding affinity (Kd) assay, AD brain homogenate. The note with it: for Kd: AD brain, Table 1.

Data set [3] deals with T3, aggregated 4R-tau in CBD brain (Homo sapiens, UniProt P10636).
T3 construct: aggregated 4R-tau in human brain tissue samples from AD, PSP, and CBD patients; from tissue; host or cells: homogenized cortex of human CBD brain
Briefly: Binding affinity (Kd) assay, CBD brain homogenate. As to conditions: for Kd: CBD brain, Table 1.

Data set [4] deals with T4, aggregated 4R-tau in PSP tissue (Homo sapiens, UniProt P10636).
T4 construct: autopsy-confirmed postmortem AD, PSP, and CBD human brain tissues; tissue UCSF Neurodegenerative Disease Brain Bank; host or cells: post-mortem human PSP brain homogenate
Kind of data set: In vitro competition (Ki) assay, PSP brain tissue homogenate. In kind it is binding.
Protocol: (§1) The assays utilized autopsy-confirmed postmortem AD, PSP, and CBD human brain tissues obtained from the UCSF Neurodegenerative Disease Brain Bank and contained frequent autopsy-confirmed 3R/4R-tau and amyloid-beta aggregates (AD tissue) or only 4R-tau aggregates (PSP and CBD tissues) and no other detectable aggregated amyloid species. Briefly, the tissues were homogenized in ice-cold pH 7.0 phosphate buffered saline (PBS) at 300 mg/mL on ice using a glass homogenizer, diluted 30-fold with PBS to 10 mg/mL and homogenized a second time with a Brinkmann Polytron homogenizer before storage at −80° C. Frozen brain tissue was thawed and diluted 10-fold in PBS to 1 mg/mL. […] The appropriate concentrations (ranging from 0.1-1000 nM) of unlabeled competitor in 400 μL of PBS buffer were combined with 500 μL of the tritium-labeled radioligand in PBS (~1 nM final concentration of radioligand). The assay was initiated by the addition of 100 μL of 1 mg/mL brain tissue homogenate to achieve a final concentration of 100 pg tissue/mL. After incubation for 60 min at room temperature, the binding mixture was filtered through a Whatman GF/B glass filter via a Brandel M-24R cell harvester (Gaithersburg, MD, USA) and rapidly washed four times with 3 mL PBS buffer. The filters were counted in Cytoscint-ES after thorough vortexing using a liquid scintillation counter. […] All assays were performed in triplicate at each concentration.

In data set [5] the target is T5, aggregated 4R-tau in AD tissue (Homo sapiens, UniProt P10636).
T5 construct: autopsy-confirmed postmortem AD, PSP, and CBD human brain tissues; tissue UCSF Neurodegenerative Disease Brain Bank; host or cells: post-mortem human AD brain homogenate
Briefly: In vitro competition (Ki) assay, AD brain tissue homogenate. In kind it is binding.
Protocol: as §1

A short description of the next data set: log D of radiotracer. In kind it is physicochemical. As to conditions: n=4.
Data set [6] deals with T6, PiB binding site on amyloid-beta (Homo sapiens, UniProt P05067).
T6 construct: from tissue; host or cells: post-mortem human AD brain
Kind of data set: Competition against [^3H]PiB in post-mortem human AD brain tissue.
Protocol: The assays utilized autopsy-confirmed postmortem AD, PSP, and CBD human brain tissues obtained from the UCSF Neurodegenerative Disease Brain Bank and contained frequent autopsy-confirmed 3R/4R-tau and amyloid-beta aggregates (AD tissue) or only 4R-tau aggregates (PSP and CBD tissues) and no other detectable aggregated amyloid species. Briefly, the tissues were homogenized in ice-cold pH 7.0 phosphate buffered saline (PBS) at 300 mg/mL on ice using a glass homogenizer, diluted 30-fold with PBS to 10 mg/mL and homogenized a second time with a Brinkmann Polytron homogenizer before storage at −80° C. Frozen brain tissue was thawed and diluted 10-fold in PBS to 1 mg/mL. […] The appropriate concentrations (ranging from 0.1-1000 nM) of unlabeled competitor in 400 μL of PBS buffer were combined with 500 μL of the tritium-labeled radioligand in PBS (~1 nM final concentration of radioligand). The assay was initiated by the addition of 100 μL of 1 mg/mL brain tissue homogenate to achieve a final concentration of 100 pg tissue/mL. After incubation for 60 min at room temperature, the binding mixture was filtered through a Whatman GF/B glass filter via a Brandel M-24R cell harvester (Gaithersburg, MD, USA) and rapidly washed four times with 3 mL PBS buffer. The filters were counted in Cytoscint-ES after thorough vortexing using a liquid scintillation counter. […]

Another data set has as its target T7, alpha-synuclein (Homo sapiens, UniProt P37840).
T7 construct: Parkinson's Disease (PD) post-mortem brain tissue; from tissue; host or cells: post-mortem Parkinson's Disease brain
Briefly: Homologous binding assay, Parkinson's Disease (PD) brain tissue.

The next data set relates to AD brain tissue. Briefly: Autoradiography, post-mortem AD brain tissue. The class given is binding, human. The note with it: medial frontal cortex, 5 nM, self-blocking with 1 mM unlabeled 69.
In data set [7] the test system is post-mortem human brain control tissue. Briefly: Autoradiography, post-mortem control brain tissue. In kind it is binding. As to conditions: cingulate gyrus, 5 nM, self-blocking with 1 mM unlabeled 69.
Data set [8] deals with T8, Pick's Disease brain tissue (Homo sapiens, UniProt P10636).
T8 construct: post-mortem human AD, PSP, CBD, and Pick's Disease brain tissue; from tissue; host or cells: post-mortem human Pick's Disease brain
Briefly: Homologous binding assay, Pick's Disease brain tissue. The note with it: post-mortem human Pick's Disease brain tissue.

Another data set concerns PSP brain tissue. Kind of data set: Autoradiography, post-mortem PSP brain tissue. In kind it is binding, human. As to conditions: medial frontal cortex, 5 nM, self-blocking with 1 mM unlabeled 69.
The subject of the next data set is CBD brain tissue. Briefly: Autoradiography, post-mortem CBD brain tissue. In kind it is binding, human. The note with it: medial frontal cortex, 5 nM, self-blocking with 1 mM unlabeled 69.
For a further data set, the target named is T9, P301L mouse brain tissue (Homo sapiens, UniProt P10636, P618L).
T9 construct: from tissue; host or cells: brain tissue of P301L mouse
Briefly: Homologous binding assay, P301L mouse brain tissue.

The mark [9] stands for this setting: vs [^3H]2, n = 1, Ki=IC50/2, read-out: Inhibition Constant (Ki) versus [^3H]2.
The mark [10] stands for this setting: vs [^3H]1, n = 1, Ki=IC50/2, read-out: Inhibition Constant (Ki) versus [^3H]1.
[11] abbreviates: post-mortem human AD brain tissue.

SMILES strings stand for the structures. Where two headings read alike, the source gives them in different places.

T5 sequence (P10636 1-441 isoform P10636-8): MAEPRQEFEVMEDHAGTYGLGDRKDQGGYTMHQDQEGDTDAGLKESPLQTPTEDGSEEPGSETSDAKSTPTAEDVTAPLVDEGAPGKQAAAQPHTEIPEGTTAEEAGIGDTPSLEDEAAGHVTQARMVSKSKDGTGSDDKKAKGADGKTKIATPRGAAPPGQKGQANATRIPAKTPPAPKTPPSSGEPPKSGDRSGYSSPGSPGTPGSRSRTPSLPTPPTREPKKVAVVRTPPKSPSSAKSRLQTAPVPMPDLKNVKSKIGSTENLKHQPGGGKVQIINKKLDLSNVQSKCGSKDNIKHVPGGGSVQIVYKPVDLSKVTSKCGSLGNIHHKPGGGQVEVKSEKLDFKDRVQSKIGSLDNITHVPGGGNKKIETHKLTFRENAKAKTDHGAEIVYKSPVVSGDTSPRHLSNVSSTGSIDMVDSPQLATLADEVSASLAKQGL
T5 sequence (P10636 1-410 isoform P10636-5): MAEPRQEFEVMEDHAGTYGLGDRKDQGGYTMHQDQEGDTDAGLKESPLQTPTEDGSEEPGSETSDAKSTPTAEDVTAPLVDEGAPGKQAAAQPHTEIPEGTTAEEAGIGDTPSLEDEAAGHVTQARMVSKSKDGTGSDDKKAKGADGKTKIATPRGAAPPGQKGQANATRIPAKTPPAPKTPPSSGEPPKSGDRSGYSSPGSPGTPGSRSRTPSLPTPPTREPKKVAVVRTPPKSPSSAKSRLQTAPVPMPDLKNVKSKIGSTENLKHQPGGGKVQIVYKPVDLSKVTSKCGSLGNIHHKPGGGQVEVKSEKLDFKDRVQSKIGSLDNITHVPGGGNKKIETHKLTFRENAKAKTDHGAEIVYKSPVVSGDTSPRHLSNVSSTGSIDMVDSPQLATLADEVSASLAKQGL
T2 sequence (P10636 1-441 isoform P10636-8): as the sequence (P10636 1-441 isoform P10636-8) above
T2 sequence (P10636 1-410 isoform P10636-5): as the sequence (P10636 1-410 isoform P10636-5) above
T4 sequence (P10636 1-441 isoform P10636-8): as the sequence (P10636 1-441 isoform P10636-8) above
T1 sequence (P10636 1-441 isoform P10636-8): as above
T3 sequence (P10636 1-441 isoform P10636-8): as above
T6 sequence (P05067 672-713 limits assumed): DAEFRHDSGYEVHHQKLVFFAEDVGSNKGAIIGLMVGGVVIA
T9 sequence (P10636 1-441 isoform P10636-8 P301L): as the sequence (P10636 1-441 isoform P10636-8) above, with P301L counted along it
T8 sequence (P10636 1-410 isoform P10636-5): as the sequence (P10636 1-410 isoform P10636-5) above

In the case of `OC1CCN(c2ncc(-c3cc4ccc(F)cc4[nH]3)cn2)CC1` [[^3H]1], the equilibrium dissociation constant (Kd) in data set [1] came out at 0.0051 ± 0.0012 µM; in [2], 0.004 ± 0.0031 µM; in data set [3] it was 0.0041 µM.

Regarding `Fc1ccc2cc(-c3cnc(N4CCOCC4)cc3F)[nH]c2c1` [Compound 82, 4-(4-Fluoro-5-(6-fluoro-1H-indol-2-yl)pyridin-2-yl)morpholine], the Ki in [4] (setting [9]) was 0.012 µM; in data set [5] (setting [9]), 0.011 µM.

Consider `OC1CCN(c2ncc(-c3cc4ccccc4[nH]3)cn2)CC1` [Compound 46, 1-(5-(1H-Indol-2-yl)pyrimidin-2-yl)piperidin-4-ol], for which the inhibition constant Ki in [4] (setting [10]) came out at 0.024 µM; in [5] (setting [10]), 0.011 µM.

Take `Fc1ccc2cc(-c3cnc(N4CCC(F)(F)CC4)nc3)[nH]c2c1` [Compound 17, 2-(2-(4,4-Difluoropiperidin-1-yl)pyrimidin-5-yl)-6-fluoro-1H-indole]: the Ki was 0.023 µM in [4] (setting [10]) and 0.037 µM in [5] (setting [10]).

On to `Fc1ccc2cc(-c3ncc(N4CCOCC4)cc3F)[nH]c2c1` [Compound 98, 4-(5-Fluoro-6-(6-fluoro-1H-indol-2-yl)pyridin-3-yl)morpholine], for which the inhibition constant (Ki) in [4] (setting [9]) amounted to 0.02 µM; in data set [5] (setting [9]), 0.017 µM.

As for `[18F]c1nc(N2CCOCC2)ccc1-c1cc2ccccc2[nH]1` [[^18F]69, 4-(6-[^18F]Fluoro-5-(1H-indol-2-yl)pyridin-2-yl)morpholine], the logD in “log D of radiotracer” stood at 1.96 ± 10.

Take `Fc1nc(N2CCOCC2)ccc1-c1cc2ccccc2[nH]1` [Compound 69, 4-(6-Fluoro-5-(1H-indol-2-yl)pyridin-2-yl)morpholine]: the “binding to the PiB binding site on amyloid-beta (in words)” value in [6] (concluded from competition against [^3H]PiB) was “does bind to the PiB binding site on amyloid-beta”. Also, the “competition against [^3H]PiB (in words)” value in [6] (setting [11]) was “does not compete well”. The “binding to alpha-synuclein (in words)” value at alpha-synuclein (concluded from PD brain tissue) is recorded as “does not bind strongly to alpha-synuclein”.

With `OC1CCN(c2ncc(-c3cc4cc(F)ccc4o3)cn2)CC1` [Compound 43, 1-(5-(5-Fluorobenzofuran-2-yl)pyrimidin-2-yl)piperidin-4-ol], the figures for the Ki in [4] (setting [10]) and in data set [5] (setting [10]) were 0.091 µM and 0.045 µM, respectively.

Regarding `Cn1c(-c2cnc(N3CCOCC3)nc2)cc2ccc(F)cc21` [Compound 103, 4-(5-(6-Fluoro-1-methyl-1H-indol-2-yl)pyrimidin-2-yl)morpholine], the inhibitory constant (Ki) amounted to 0.032 µM in data set [4] (setting [10]) and 0.022 µM in data set [5] (setting [10]).

With `Fc1ccc2cc(-c3cnc(N4CCOCC4)nc3)[nH]c2c1` [[^3H]2], the equilibrium dissociation constant (Kd) in data set [1] came to 0.0016 ± 0.0002 µM; in data set [2] it was 0.0012 ± 0.0005 µM; in data set [3] it was 0.0017 ± 0.0003 µM.

For `OC1CCN(c2ncc(-c3cc4cc(F)ccc4[nH]3)cn2)CC1` [Compound 47, 1-(5-(5-Fluoro-1H-indol-2-yl)pyrimidin-2-yl)piperidin-4-ol], the inhibitory constant (Ki) in [4] (setting [10]) is 0.02 µM; in [5] (setting [10]), 0.021 µM.

Consider `Fc1nc(N2CCOCC2)ccc1-c1cc2ccccc2[nH]1` [[^3H]69], for which the “binding affinity (in words)” value in data set [1] (post-mortem human PSP brain tissue) is on record as “high affinity”; in [2] (setting [11]), “high affinity”; in data set [8] it was “high affinity”; on P301L mouse brain tissue it was “high affinity”; on alpha-synuclein (Parkinson's Disease (PD) post-mortem brain tissue), “low affinity”; in [3] (post-mortem human CBD brain tissue) it was “high affinity”. In addition, the “specific binding by autoradiography” value is “Specific binding” with AD brain tissue, “Little to no specific binding” in data set [7], “Specific binding” with PSP brain tissue and “Specific binding” with CBD brain tissue. The affinity at alpha-synuclein (PD tissue, Table 7 (n = 4)), expressed as Kd, was 0.11 ± 0.054 µM.
